Measurements from ChEMBL document CHEMBL1201862, “PubChem BioAssay data set” (2004).
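Following 48 hours of exposure in 96-well plates, responses at five concentrations were used to interpolate endpoints linearly. GI50: concentration for 50% inhibition of growth.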 The source made the active and inactive calls. Rule as the data show it: active = GI50 up to about 1.1 µM and inactive = higher.

Columns and labels:
Assay in all cases: inhibition of tumour cell growth, NCI panel, 48 h
M14 = tested on: M14
SN12C = tested on: SN12C
ACHN = tested on: ACHN
KM12 = tested on: KM12
Malme-3M = tested on: Malme-3M
HCT-116 = tested on: HCT-116
NCI-H522 = tested on: NCI-H522
HT-29 = tested on: HT-29
TK-10 = tested on: TK-10
SK-MEL-28 = tested on: SK-MEL-28
T47D = tested on: T47D
NCI-H460 = tested on: NCI-H460
SF-539 = tested on: SF-539
HOP-92 = tested on: HOP-92
UACC-62 = tested on: UACC-62
CAKI-1 = tested on: CAKI-1
NCI/ADR-RES = tested on: NCI/ADR-RES
NCI-H226 = tested on: NCI-H226
OVCAR-5 = tested on: OVCAR-5
HL-60 = tested on: HL-60

Compound | GI50 (M14) | GI50 (SN12C) | GI50 (ACHN) | GI50 (KM12) | GI50 (Malme-3M) | GI50 (HCT-116) | GI50 (NCI-H522) | GI50 (HT-29) | GI50 (TK-10) | GI50 (SK-MEL-28) | GI50 (T47D) | GI50 (NCI-H460) | GI50 (SF-539) | GI50 (HOP-92) | GI50 (UACC-62) | GI50 (CAKI-1) | GI50 (NCI/ADR-RES) | GI50 (NCI-H226) | GI50 (OVCAR-5) | GI50 (HL-60)
COc1ccc(N(CN2C(=O)CCC2OC)C(C)=O)cc1 (stereo not drawn) | > 100 µM (inactive) | > 100 µM (inactive) | > 100 µM (inactive) | > 100 µM (inactive) | > 100 µM (inactive) | > 100 µM (inactive) | > 100 µM (inactive) | > 100 µM (inactive) | > 100 µM (inactive) | > 100 µM (inactive) | > 100 µM (inactive) | > 100 µM (inactive) | > 100 µM (inactive) | > 100 µM (inactive) | > 100 µM (inactive) | > 100 µM (inactive) | > 100 µM (inactive) | > 100 µM (inactive) | > 100 µM (inactive) | 
CSCCCN(CCCSC)CCCSC | > 100 µM (inactive) | > 100 µM (inactive) |  | > 100 µM (inactive) |  | > 100 µM (inactive) | 66.7 µM (inactive) | > 100 µM (inactive) |  | > 100 µM (inactive) | > 100 µM (inactive) | > 100 µM (inactive) | > 100 µM (inactive) |  | 97.5 µM (inactive) |  | > 100 µM (inactive) |  | > 100 µM (inactive) | 13.5 µM (inactive)
O=C1NN=C(c2ccc(Cl)cc2)CC1C1C(=O)N(c2ccccc2)N=C1c1ccccc1 (stereo not drawn) | 37.8 µM (inactive) | 34.4 µM (inactive) | 29.2 µM (inactive) | 29 µM (inactive) | 30.7 µM (inactive) | 19.6 µM (inactive) | 23.6 µM (inactive) | 32.9 µM (inactive) | 35.6 µM (inactive) | 36.7 µM (inactive) | 22.1 µM (inactive) | 28.1 µM (inactive) | 25.9 µM (inactive) |  | 26.8 µM (inactive) |  | 40.6 µM (inactive) | 31.8 µM (inactive) | 28.9 µM (inactive) | 37.2 µM (inactive)
c1ccc(C(/C(=N/c2ccc(Cc3ccc(/N=C(\C(c4ccccc4)c4ccccc4)N4CC4)cc3)cc2)N2CC2)c2ccccc2)cc1 | 14.3 µM (inactive) | 14.3 µM (inactive) | 5.82 µM (inactive) | 6.28 µM (inactive) | 14.9 µM (inactive) | 4.36 µM (inactive) | 3.14 µM (inactive) | 3.1 µM (inactive) | 14.2 µM (inactive) | 9.46 µM (inactive) | 2.61 µM (inactive) | 1.78 µM (inactive) | 16.3 µM (inactive) |  | 2.32 µM (inactive) | 6.95 µM (inactive) | 9.25 µM (inactive) | 14.7 µM (inactive) | 11.5 µM (inactive) | 4.23 µM (inactive)
O=C1NCC(NC(=O)C(F)(F)F)c2c(Br)sc(Br)c21 (stereo not drawn) | > 100 µM (inactive) | > 100 µM (inactive) | > 100 µM (inactive) | > 100 µM (inactive) | > 100 µM (inactive) | > 100 µM (inactive) | > 100 µM (inactive) | > 100 µM (inactive) | > 100 µM (inactive) | > 100 µM (inactive) | > 100 µM (inactive) | > 100 µM (inactive) | > 100 µM (inactive) | > 100 µM (inactive) | > 100 µM (inactive) | > 100 µM (inactive) | > 100 µM (inactive) | > 100 µM (inactive) | > 100 µM (inactive) | 
Cn1c2ccccc2c2[nH]c3ccccc3c(=O)c21 | > 100 µM (inactive) | > 100 µM (inactive) | > 100 µM (inactive) | > 100 µM (inactive) | > 100 µM (inactive) | 53.3 µM (inactive) |  | > 100 µM (inactive) | > 100 µM (inactive) | > 100 µM (inactive) | 43 µM (inactive) | > 100 µM (inactive) | > 100 µM (inactive) | 65.5 µM (inactive) | > 100 µM (inactive) | > 100 µM (inactive) | > 100 µM (inactive) | > 100 µM (inactive) | > 100 µM (inactive) | > 100 µM (inactive)
N#Cc1ccc(CSC2=C(c3ccc(Cl)cc3)S/C(=C3\SC(SCc4ccc(C#N)cc4)=C(c4ccc(Cl)cc4)S3)S2)cc1 | > 100 µM (inactive) | > 100 µM (inactive) | > 100 µM (inactive) | > 100 µM (inactive) | > 100 µM (inactive) | > 100 µM (inactive) | > 100 µM (inactive) | > 100 µM (inactive) | > 100 µM (inactive) | > 100 µM (inactive) | > 100 µM (inactive) | > 100 µM (inactive) | > 100 µM (inactive) |  | > 100 µM (inactive) | > 100 µM (inactive) | > 100 µM (inactive) | > 100 µM (inactive) | > 100 µM (inactive) | > 100 µM (inactive)
O=S(=O)(O)c1ccc(/N=N/c2ccc(/N=N/c3c(O)ccc4ccccc34)cc2)cc1 | > 100 µM (inactive) | > 100 µM (inactive) | > 100 µM (inactive) | 98.6 µM (inactive) | 35.6 µM (inactive) | > 100 µM (inactive) | > 100 µM (inactive) | > 100 µM (inactive) | > 100 µM (inactive) | > 100 µM (inactive) | 97.9 µM (inactive) | > 100 µM (inactive) |  | > 100 µM (inactive) | > 100 µM (inactive) | > 100 µM (inactive) | > 100 µM (inactive) | > 100 µM (inactive) | > 100 µM (inactive) | 0.893 µM (active)
COc1cc(N(CCC#N)CCC#N)ccc1C(/N=N/c1cccc(C)c1)=N\NC(=O)c1ccc(C)cc1 | > 100 µM (inactive) | > 100 µM (inactive) | 21.8 µM (inactive) | > 100 µM (inactive) | 43.5 µM (inactive) | > 100 µM (inactive) | 80.5 µM (inactive) | > 100 µM (inactive) | 57.7 µM (inactive) | > 100 µM (inactive) | 66.2 µM (inactive) | 25.9 µM (inactive) |  | 65.9 µM (inactive) | 37.2 µM (inactive) | > 100 µM (inactive) | > 100 µM (inactive) | > 100 µM (inactive) | > 100 µM (inactive) | 47.3 µM (inactive)
CCCCCCCCCCCCOC1C(COCCN2CCCC2)OC2OC(C)(C)OC21 (stereo not drawn) | 1.85 µM (inactive) | 1.82 µM (inactive) | 3.35 µM (inactive) |  | 1.92 µM (inactive) | 1.75 µM (inactive) | 1.23 µM (inactive) | 1.55 µM (inactive) | 1.66 µM (inactive) | 1.72 µM (inactive) | 2.07 µM (inactive) |  | 1.76 µM (inactive) | 1.39 µM (inactive) | 1.91 µM (inactive) | 1.6 µM (inactive) | 1.73 µM (inactive) | 2.56 µM (inactive) | 1.51 µM (inactive) | 0.927 µM (active)
COC(=O)c1sc2ncc3c(c2c1N)CC(C)CC3 (stereo not drawn) | > 100 µM (inactive) | > 100 µM (inactive) | > 100 µM (inactive) | > 100 µM (inactive) | > 100 µM (inactive) | > 100 µM (inactive) | > 100 µM (inactive) | 67 µM (inactive) | > 100 µM (inactive) | > 100 µM (inactive) | > 100 µM (inactive) | > 100 µM (inactive) | > 100 µM (inactive) | > 100 µM (inactive) | > 100 µM (inactive) | > 100 µM (inactive) | > 100 µM (inactive) | > 100 µM (inactive) | > 100 µM (inactive) | 
N#CC(C#N)/N=N/c1ccc(-c2nc3ccccc3o2)cc1 | 15.2 µM (inactive) | 13.2 µM (inactive) | 12.9 µM (inactive) | 20.9 µM (inactive) | 13.3 µM (inactive) | 5.55 µM (inactive) | 5.02 µM (inactive) | 12.8 µM (inactive) | 11 µM (inactive) | 6.12 µM (inactive) | 4.32 µM (inactive) | 13.9 µM (inactive) | 12.2 µM (inactive) | 6.81 µM (inactive) | 6.05 µM (inactive) |  | 17.5 µM (inactive) |  | 17.4 µM (inactive) | 5.48 µM (inactive)
NC(=O)NCCCC(NC(=O)OCCCCn1ccc(=O)[nH]c1=O)C(=O)O (stereo not drawn) | > 100 µM (inactive) | > 100 µM (inactive) | > 100 µM (inactive) | > 100 µM (inactive) |  | > 100 µM (inactive) |  | > 100 µM (inactive) | > 100 µM (inactive) | > 100 µM (inactive) | > 100 µM (inactive) | > 100 µM (inactive) | > 100 µM (inactive) | > 100 µM (inactive) | > 100 µM (inactive) | > 100 µM (inactive) | > 100 µM (inactive) | > 100 µM (inactive) | > 100 µM (inactive) | > 100 µM (inactive)
O=C1NC(S(=O)(=O)O)=NNC12c1ccccc1-c1ccccc12 | > 10 µM (inactive) | > 10 µM (inactive) | > 10 µM (inactive) | > 10 µM (inactive) | > 10 µM (inactive) | > 10 µM (inactive) | > 10 µM (inactive) | > 10 µM (inactive) | > 10 µM (inactive) | > 10 µM (inactive) | 4.16 µM (inactive) | > 10 µM (inactive) | > 10 µM (inactive) | > 10 µM (inactive) | > 10 µM (inactive) | > 10 µM (inactive) | > 10 µM (inactive) | > 10 µM (inactive) |  | > 10 µM (inactive)
COC(=O)C1(C(=O)OC)N=C(C)OC1/C=C/c1ccccc1 (stereo not drawn) | > 100 µM (inactive) | > 100 µM (inactive) | > 100 µM (inactive) | > 100 µM (inactive) |  | > 100 µM (inactive) |  |  | > 100 µM (inactive) | > 100 µM (inactive) | > 100 µM (inactive) | > 100 µM (inactive) |  | > 100 µM (inactive) | > 100 µM (inactive) | > 100 µM (inactive) | > 100 µM (inactive) | > 100 µM (inactive) | > 100 µM (inactive) | > 100 µM (inactive)
